Source: US9782472B2, “Therapeutic compositions and methods for treating HIV including identification and manipulation of particular domains associated with immunogenicity” (The Regents of The University of California, priority 2008, dated 2017)

How the values were obtained:
Format in all cases: cell-based, HIV-1
108051_005 wtR = tested on: 108051_005 wtR
Description: (§1) Construction of envelope gene libraries and pseudoviruses. Libraries of envelope glycoprotein were created from each subject by PCR amplification of full length envelope genes from cryopreserved plasma using the method described previously. The swarm of PCR products was cloned into a plasmid expression vector useful for the construction of pseudoviruses. The vector was specifically designed to permit the construction of pseudovirus libraries for use in a well-established and validated virus neutralization assay. However, instead of pooling all of the clones together and carrying out neutralization assays or drug sensitivity assays with an entire library of cloned genes from each infected individual as had been done previously, we plated out the plasmid library on agar plates and picked 24-48 clones from each individual for infectivity studies. The plasmid DNA was isolated from each clone and used to create a stock of pseudovirus particles that were then screened for infectivity, and chemokine receptor usage. After verifying infectivity and receptor usage, we then selected approximately ten CCR5-dependent pseudotype viruses with good infectivity for virus neutralization assays. The virus neutralization assays were carried out as described by Schweighardt et al.
(§2) Virus neutralization assay. The automated virus neutralization assay described in this study has been described previously. The neutralization data reported represent IC50 values calculated from serum dilution curves. This assay employs multiple assay controls, including a positive pseudotype virus control panel and a negative pseudotype virus control panel. Assay acceptability criteria have been established to minimize interassay variability and assure comparability of data from different experiments. The positive virus control panel includes the pseudotypes from the neutralization sensitive isolate, NL43, and the less neutralization sensitive primary isolate JRcsf. The negative virus (specificity) control consists of pseudotype viruses prepared from the envelope of the amphitropic murine leukemia virus.

108051_006 wtS = tested on: 108051_006 wtS
Description: as §1, §2

108060 clone 022 wtR = conditions: 108060_022 wtR; 50% inhibition in target cell infection
Description: as §1, §2

108060 clone 024 wtS = tested on: 108060 clone 024 wtS
Description: as §1, §2

108069_005 wtR = tested on: 108069_005 wtR
Description: as §1, §2

108069_011 wtS = tested on: 108069_011 wtS
Description: as §1, §2

108051_005 Q655R = 108051_005 Q655R (numbering of 108060)
Description: as §1
(§3) Sequencing and mutagenesis. Plasmids containing cloned envelope glycoproteins were sequenced using fluorescently labeled dideoxynucleotides at either Monogram Biosciences or the University of California Sequencing Facility (Berkeley, Calif.) using capillary electrophoresis sequencing devices (Applied Biosystems, Foster City, Calif.). HIV envelope glycoprotein sequences were mutagenized by a mismatched primer method using the QuikChange Mutagenesis kit (Stratagene, San Diego). All mutations were confirmed by DNA sequencing. The numbering of amino acids is made with reference to the sequence of gp160 from clone 022 of from subject 108060. Position 655 corresponds to position 653 of the HXB2 reference strain of HIV-1.
as §2

108060_022 Q655R = tested on: 108060_022 Q655R
Description: as §1, §3, §2

108060_024 R655Q = tested on: 108060_024 R655Q
Description: as §1, §3, §2

108069_005 Q655R = tested on: 108069_005 Q655R
Description: as §1, §3, §2

With enfuvirtide as the substance, how does the “IC50 of indicated MAb or fusion inhibitor” value (108051_005 wtR) read?
The value was 0.088 µg/mL.

And the “IC50 of indicated MAb or fusion inhibitor” value (108051_006 wtS)?
Its value is 0.008 µg/mL.

What about the “IC50 of indicated MAb or fusion inhibitor” value (108060 clone 022 wtR) of the same substance?
Its value is 0.068 µg/mL.

What about the “IC50 of indicated MAb or fusion inhibitor” value (108060 clone 024 wtS; 108060_024 wtS) of the same substance?
Its value is 0.019 µg/mL.

And the “Fold more sensitive to neutralization” value (108060 clone 024 wtS; clone 024 compared with clone 022 of subject 108060)?
Its value is 3.5 fold.

What about the “IC50 of indicated MAb or fusion inhibitor” value (108069_005 wtR) of the same substance?
Its value is 0.071 µg/mL.

And the “IC50 of indicated MAb or fusion inhibitor” value (108069_011 wtS)?
The value was 0.145 µg/mL.

And the “IC50 of indicated MAb or fusion inhibitor” value (108051_005 Q655R)?
Its value is 0.036 µg/mL.

What about the “IC50 of indicated MAb or fusion inhibitor” value (108060_022 Q655R; 108060_022 Q655R) of the same substance?
Its value is 0.004 µg/mL.

What about the “Fold increase in neutralization sensitivity” value (108060_022 Q655R; 108060_022 Q655R compared with wild-type clone 022) of the same substance?
Its value is 17 fold.

What about the “IC50 of indicated MAb or fusion inhibitor” value (108060_024 R655Q) of the same substance?
The value was 0.130 µg/mL.

And the “IC50 of indicated MAb or fusion inhibitor” value (108069_005 Q655R; 108069_005 Q655R (numbering of 108060))?
Its value is 0.011 µg/mL.

What about the “Fold increase in sensitivity” value (108069_005 Q655R; Q to R at position corresponding to 655 in the 108069 virus, versus parental virus) of the same substance?
Its value is “more than 17 fold”.
